{"source": "patent US20200011856A1", "about": "“Method for Determining the Effectiveness of Treatment for the Prevention of Heartworm Disease” (priority 2017, published 2020)", "key": {"Dirofilaria immitis": {"system": "Dirofilaria immitis", "experiment": "D. immitis L3 infection of NSG mice (FR3 Missouri strain or strain not stated), treatment, recovery and count of worms at necropsy", "assay_type": "in vivo", "conditions": "for % Rec (percent of the original 50 Di recovered): 1 mg/kg"}, "[1]": {"system": "Dirofilaria immitis (Merial worms, UC strain)", "experiment": "D. immitis L3 infection of NSG mice with Merial worms / UC strain, treatment, recovery and count of worms", "assay_type": "in vivo", "conditions": "for % Rec, Mean / Mean % Rec: group mean; for Mean Survival / Survival, Mean: in vivo"}, "[2]": {"conditions": "Table 9, NSG mice, 50 Di L3, 1 mg/kg on Days 1, 15, and 30, recovery Days 41 to 43"}, "[3]": {"conditions": "Table 9, group mean, NSG mice, 50 Di L3, 1 mg/kg on Days 1, 15, and 30, recovery Days 41 to 43"}, "[4]": {"conditions": "Table 9, individual mouse, NSG mice, 50 Di L3, 1 mg/kg on Days 1, 15, and 30, recovery Days 41 to 43"}, "[5]": {"conditions": "NSG mice, 50 Di L3 Merial worms, 1 mg/kg on Days 1, 15, and 30, recovery Days 41 to 43"}, "[6]": {"conditions": "NSG mice, 50 Di L3 UC strain, High Dose 2 mg/kg on Days 1, 15, and 30, recovery Days 41 and 42"}, "[7]": {"conditions": "NSG mice, 50 Di L3 UC strain, Normal Dose 1 mg/kg on Days 1, 15, and 30, recovery Days 41 and 42"}}, "note": "Several values for one entry are separate records, joined by “and”; a condition that tells them apart may be missing. Identical values can stand only once.", "data": [{"molecule": "COC(=O)Nc1nc2ccc(OS(=O)(=O)c3ccc(F)cc3)cc2[nH]1", "note": "[compound 8914, luxabendazole]", "values": [{"measurement": "% Red", "setting": "Dirofilaria immitis; [2]", "result": 0, "unit": "%"}, {"measurement": "Mean % Rec", "setting": "Dirofilaria immitis; [3]", "result": 33, "unit": "%"}, {"measurement": "% Rec", "setting": "Dirofilaria immitis; [4]", "result": "24% and 32% and 28% and 48%"}, {"measurement": "Mean Survival", "setting": "Dirofilaria immitis; in vivo", "result": 17}, {"measurement": "Survival", "setting": "Dirofilaria immitis; in vivo", "result": "12 and 16 and 14 and 24"}]}, {"molecule": "CC(C)C[C@H]1C(=O)O[C@H](C)C(=O)N(C)[C@@H](CC(C)(C)F)C(=O)O[C@H](Cc2ccc(C3CCOCC3)cc2)C(=O)N(C)[C@@H](CC(C)C)C(=O)O[C@H](C)C(=O)N(C)[C@@H](CC(C)(C)F)C(=O)O[C@H](Cc2ccc(C3CCOCC3)cc2)C(=O)N1C", "note": "[compound 8800]", "values": [{"measurement": "% Rec, Mean", "setting": "[1]; 8800 1 mg/kg Days 1, 15, 30, 50 Di L3 (UC Strain) per NSG mouse, recovery Days 41 to 43", "result": 10, "unit": "%"}, {"measurement": "% Rec", "setting": "[1]; 8800 1 mg/kg Days 1, 15, 30, 50 Di L3 (UC Strain) per NSG mouse, recovery Days 41 to 43, individual mice, 1 mg/kg", "result": "10% (2×) and 14% and 16% and 4% and 6% and 12%"}, {"measurement": "% Red", "setting": "[1]; 8800 1 mg/kg Days 1, 15, 30, 50 Di L3 (UC Strain) per NSG mouse, vs Control", "result": 73, "unit": "%"}, {"measurement": "% Rec, Mean", "setting": "[1]; 8800 2 mg/kg Days 1, 15, 30, 50 Di L3 (UC Strain) per NSG mouse, recovery Days 41 to 43", "result": 2, "unit": "%"}, {"measurement": "% Rec", "setting": "[1]; 8800 2 mg/kg Days 1, 15, 30, 50 Di L3 (UC Strain) per NSG mouse, recovery Days 41 to 43, individual mice, 2 mg/kg", "result": "2% (3×) and 0% (2×) and 6% and 4%"}, {"measurement": "% Red", "setting": "[1]; 8800 2 mg/kg Days 1, 15, 30, 50 Di L3 (UC Strain) per NSG mouse, vs Control", "result": 94, "unit": "%"}, {"measurement": "% Red", "setting": "[1]; [5]", "result": 65, "unit": "%"}, {"measurement": "% Red", "setting": "[1]; [6]", "result": 94, "unit": "%"}, {"measurement": "% Red", "setting": "[1]; [7]", "result": 81, "unit": "%"}, {"measurement": "Mean % Rec", "setting": "[1]; [5]", "result": 12, "unit": "%"}, {"measurement": "Mean % Rec", "setting": "[1]; [6]", "result": 2, "unit": "%"}, {"measurement": "Mean % Rec", "setting": "[1]; [7]", "result": 7, "unit": "%"}, {"measurement": "Mean Survival", "setting": "[1]; 1 mg/kg", "result": "6 and 4"}, {"measurement": "Survival, Mean", "setting": "[1]; 1 mg/kg", "result": 5}, {"measurement": "Mean Survival", "setting": "[1]; 2 mg/kg", "result": 1}, {"measurement": "Survival, Mean", "setting": "[1]; 2 mg/kg", "result": 1}, {"measurement": "% Rec", "setting": "[1]; individual mouse, NSG mice, 50 Di L3 Merial worms, 1 mg/kg on Days 1, 15, and 30, recovery Days 41 to 43, 1 mg/kg", "result": "0% (2×) and 12% (3×) and 8% and 32% and 16%"}, {"measurement": "% Rec", "setting": "[1]; individual mouse, NSG mice, 50 Di L3 UC strain, High Dose 2 mg/kg on Days 1, 15, and 30, recovery Days 41 and 42, 2 mg/kg", "result": "2% (3×) and 0% (3×) and 8%"}, {"measurement": "% Rec", "setting": "[1]; individual mouse, NSG mice, 50 Di L3 UC strain, Normal Dose 1 mg/kg on Days 1, 15, and 30, recovery Days 41 and 42, 1 mg/kg", "result": "6% (2×) and 4% and 2% and 8% and 10% and 14%"}, {"measurement": "% Red", "setting": "Dirofilaria immitis; 8800 5 mg/kg Days 1, 15, 30, 50 Di L3 per NSG mouse, Table 14, vs Control", "result": 100, "unit": "%"}, {"measurement": "% Rec, Mean", "setting": "Dirofilaria immitis; 8800 5 mg/kg Days 1, 15, 30, 50 Di L3 per NSG mouse, recovery Days 41 to 42, Table 14, group mean", "result": 0, "unit": "%"}, {"measurement": "% Rec", "setting": "Dirofilaria immitis; 8800 5 mg/kg Days 1, 15, 30, 50 Di L3 per NSG mouse, recovery Days 41 to 42, Table 14, individual mice", "result": 0, "unit": "%"}, {"measurement": "% Red", "setting": "Dirofilaria immitis; NSG mice, 50 Di L3, 2x (1 mg/kg) at Days 1 and 30, recovery Days 41 to 43", "result": 38, "unit": "%"}, {"measurement": "% Red", "setting": "Dirofilaria immitis; NSG mice, 50 Di L3 Day 0, 1 mg/kg EMO or 8800 on Days 30 and 60, recovery Days 83 and 84", "result": 43, "unit": "%"}, {"measurement": "% Red (percent reduction in percent of Di recovered compared to control)", "setting": "Dirofilaria immitis; NSG mice, 50 Di L3 Day 0, 1 mg/kg on Day 30, recovery Days 41 to 43", "result": 23, "unit": "%"}, {"measurement": "% Red", "setting": "Dirofilaria immitis; [2]", "result": 73, "unit": "%"}, {"measurement": "Mean % Rec", "setting": "Dirofilaria immitis; [3]", "result": 9, "unit": "%"}, {"measurement": "% Rec", "setting": "Dirofilaria immitis; [4]", "result": "8% (3×) and 10% and 28% and 16% and 0%"}, {"measurement": "% Red", "setting": "Dirofilaria immitis; Table 11, NSG mice, 50 Di L3, 0.3 mg/kg on Days 1, 15, and 30, recovery Days 41 to 42", "result": 0, "unit": "%"}, {"measurement": "% Red", "setting": "Dirofilaria immitis; Table 11, NSG mice, 50 Di L3, 1 mg/kg on Days 1, 15, and 30, recovery Days 41 to 42", "result": 71, "unit": "%"}, {"measurement": "Mean % Rec", "setting": "Dirofilaria immitis; Table 11, group mean, NSG mice, 50 Di L3, 0.3 mg/kg on Days 1, 15, and 30, recovery Days 41 to 42", "result": 26, "unit": "%"}, {"measurement": "Mean % Rec", "setting": "Dirofilaria immitis; Table 11, group mean, NSG mice, 50 Di L3, 1 mg/kg on Days 1, 15, and 30, recovery Days 41 to 42", "result": 7, "unit": "%"}, {"measurement": "% Rec", "setting": "Dirofilaria immitis; Table 11, individual mouse, NSG mice, 50 Di L3, 0.3 mg/kg on Days 1, 15, and 30, recovery Days 41 to 42", "result": "16% (2×) and 36% (3×) and 14%"}, {"measurement": "% Rec", "setting": "Dirofilaria immitis; Table 11, individual mouse, NSG mice, 50 Di L3, 1 mg/kg on Days 1, 15, and 30, recovery Days 41 to 42", "result": "4% (2×) and 2% and 16% and 8% and 6%"}, {"measurement": "Mean % Rec", "setting": "Dirofilaria immitis; group mean, NSG mice, 50 Di L3, 2x (1 mg/kg) at Days 1 and 30, recovery Days 41 to 43", "result": 21, "unit": "%"}, {"measurement": "Mean % Rec", "setting": "Dirofilaria immitis; group mean, NSG mice, 50 Di L3 Day 0, 1 mg/kg EMO or 8800 on Days 30 and 60, recovery Days 83 and 84", "result": 8, "unit": "%"}, {"measurement": "Mean % Rec", "setting": "Dirofilaria immitis; group mean, NSG mice, 50 Di L3 Day 0, 1 mg/kg on Day 30, recovery Days 41 to 43", "result": 31, "unit": "%"}, {"measurement": "Survival", "setting": "Dirofilaria immitis; in vivo, 5 mg/kg", "result": 0}, {"measurement": "Survival, Mean", "setting": "Dirofilaria immitis; in vivo, 5 mg/kg", "result": 0}, {"measurement": "% Rec", "setting": "Dirofilaria immitis; individual mouse, NSG mice, 50 Di L3, 2x (1 mg/kg) at Days 1 and 30, recovery Days 41 to 43", "result": "22% and 16% and 12% and 26% and 20% and 32%"}, {"measurement": "% Rec (percent of the original 50 Di recovered)", "setting": "Dirofilaria immitis; individual mouse, NSG mice, 50 Di L3 Day 0, 1 mg/kg EMO or 8800 on Days 30 and 60, recovery Days 83 and 84", "result": "14% and 4% (2×) and 10% and 12% and 6%"}, {"measurement": "% Rec (percent of the original 50 Di recovered)", "setting": "Dirofilaria immitis; individual mouse, NSG mice, 50 Di L3 Day 0, 1 mg/kg on Day 30, recovery Days 41 to 43", "result": "24% (3×) and 36% and 28% and 52%"}]}]}
